Test system: SH-SY5Y cells
Assay: Pretreatment with peptides before MG stress, MTT cell viability
Type: cell-based, human
Settings: 4 h pretreatment 1 × 10^−7 M, then 1.2 mM MG 16 h, n = 3, octuplicates
Experimental: Figure 5 PrRP31 and its analog increased cell viability during the MG-induced stress. Pre-treatment for 4 h with PrRP31 and palm^11-PrRP31 at a concentration of: (a) 1 × 10^−5 M; or (b) 1 × 10^−7 M, followed by exposure to 1.2 mM MG for 16 h in SH-SY5Y cells. Pre-treatment for 4 h with PrRP31 and palm^11-PrRP31 at a concentration of: (c) 1 × 10^−5 M; (d) 1 × 10^−7 M in SH-SY5Y cells; or (e) 1 × 10^−5 M in rat primary neuronal culture, followed by exposure to 0.6 mM MG for 16 h in SH-SY5Y cells. MG toxicity was measured with MTT assay. Data are presented as the means ± SEM as a percentage of control cells treated with vehicle analyzed by a Student’s t-test vs. 0.6 mM MG # p < 0.5, ## p < 0.01, ### p < 0.001, #### p < 0.0001 (n = 3, each sample in octuplicates). Control vs. 0.6 mM MG analyzed by a Student´s t-test, * p < 0.5, ** p < 0.01.
The MTT test was used to measure cell viability. The MTT reagent was dissolved in RPMI-1640 without phenol red. Cells were incubated for 2 h with a 10% solution of MTT at 37 °C. Living cells converted soluble MTT to insoluble formazan, which was subsequently dissolved in DMSO. The absorbance was measured at a wavelength of 560 nm.
For this assay, cells were cultured in 96-well plates at a density of 40,000 cells per well. The growth medium was exchanged for serum-free DMEM 16 h before the experiment. […]

CC[C@H](C)[C@H](NC(=O)CNC(=O)[C@H](CCCNC(=N)N)NC(=O)[C@H](CO)NC(=O)[C@H](C)NC(=O)[C@H](Cc1ccc(O)cc1)NC(=O)[C@H](Cc1c[nH]c2ccccc12)NC(=O)[C@H](C)NC(=O)[C@@H]1CCCN1C(=O)[C@H](CC(N)=O)NC(=O)[C@@H](NC(=O)[C@H](CC(=O)O)NC(=O)[C@@H]1CCCN1C(=O)[C@@H](NC(=O)[C@H](CCCNC(=N)N)NC(=O)[C@@H](NC(=O)[C@H](CCC(=O)O)NC(=O)[C@H](CCSC)NC(=O)[C@H](CO)NC(=O)[C@H](Cc1c[nH]cn1)NC(=O)[C@H](CCCNC(=N)N)NC(=O)[C@H](Cc1c[nH]cn1)NC(=O)[C@@H](NC(=O)[C@H](CCCNC(=N)N)NC(=O)[C@@H](N)CO)[C@@H](C)O)[C@@H](C)CC)[C@@H](C)O)[C@@H](C)CC)C(=O)N[C@@H](CCCNC(=N)N)C(=O)N1CCC[C@H]1C(=O)N[C@H](C(=O)NCC(=O)N[C@@H](CCCNC(=N)N)C(=O)N[C@@H](Cc1ccccc1)C(N)=O)C(C)C [PrRP31]
cell viability (% of control cells): not
